The values below come from patent US20200277571A1, “METHOD FOR AMPLIFYING CONE PHOTORECEPTORS OR ROD PHOTORECEPTORS USING DORSALIZATION SIGNAL TRANSMITTER OR VENTRALIZATION SIGNAL TRANSMITTER” (RIKEN, priority 2017, published 2020).

The assay deals with S-opsin, M-opsin, L-opsin. Description: Quantitative PCR of S-opsin, M-opsin, L-opsin after maturation culture in serum-free medium. The format is cell-based, human. The note with it: T3 added (0-8 nM) in serum-free DMEM/F12 after about day 190, not less than 30 days. As to the method:
By a method similar to the methods described in Example 1 and Example 3, a cell aggregate containing a retinal tissue in a differentiation stage matured to the level that Muller cell was observed was prepared and culture was performed, in the serum-containing medium used, up to about day 190 to give a retinal tissue in a differentiation stage matured to the level that Muller cell was observed. Thereafter, by a method similar to the methods described in Example 11 and 12, further maturation was performed. That is, 0-1.35 nM BMP4 and 0-8 nM T3 were added to a medium obtained by adding 1% N2 supplement and 100 μM taurine but not adding 10% fetal calf serum to DMEM/F12 medium containing glutamic acid as a component, and culture was performed for not less than 30 days from the start of culture for further maturation. A cell aggregate containing a retinal tissue was recovered, quantitatively PCR was performed according to a conventional method, and the expression levels of S-opsin, M-opsin, L-opsin were confirmed. As a result, irrespective of the presence or absence of BMP4, the expression of S-opsin was promoted when T3 was absent.

Consider `N[C@@H](Cc1cc(I)c(Oc2ccc(O)c(I)c2)c(I)c1)C(=O)O` [T3, triodo-I-thyronine], for which the “expression of S-opsin” value is “suppressed”.
